Test results reported in ChEMBL document CHEMBL1140596, “Pharmacophore identification of KSP inhibitors” (Bioorg Med Chem Lett, 2007).
pIC50: −log10 of the molar value.

What follows are compounds tested against T1, Kinesin-like protein KIF11 (Homo sapiens, UniProt P52732) (assay: Inhibition of KSP).
T1 sequence (P52732 whole entry): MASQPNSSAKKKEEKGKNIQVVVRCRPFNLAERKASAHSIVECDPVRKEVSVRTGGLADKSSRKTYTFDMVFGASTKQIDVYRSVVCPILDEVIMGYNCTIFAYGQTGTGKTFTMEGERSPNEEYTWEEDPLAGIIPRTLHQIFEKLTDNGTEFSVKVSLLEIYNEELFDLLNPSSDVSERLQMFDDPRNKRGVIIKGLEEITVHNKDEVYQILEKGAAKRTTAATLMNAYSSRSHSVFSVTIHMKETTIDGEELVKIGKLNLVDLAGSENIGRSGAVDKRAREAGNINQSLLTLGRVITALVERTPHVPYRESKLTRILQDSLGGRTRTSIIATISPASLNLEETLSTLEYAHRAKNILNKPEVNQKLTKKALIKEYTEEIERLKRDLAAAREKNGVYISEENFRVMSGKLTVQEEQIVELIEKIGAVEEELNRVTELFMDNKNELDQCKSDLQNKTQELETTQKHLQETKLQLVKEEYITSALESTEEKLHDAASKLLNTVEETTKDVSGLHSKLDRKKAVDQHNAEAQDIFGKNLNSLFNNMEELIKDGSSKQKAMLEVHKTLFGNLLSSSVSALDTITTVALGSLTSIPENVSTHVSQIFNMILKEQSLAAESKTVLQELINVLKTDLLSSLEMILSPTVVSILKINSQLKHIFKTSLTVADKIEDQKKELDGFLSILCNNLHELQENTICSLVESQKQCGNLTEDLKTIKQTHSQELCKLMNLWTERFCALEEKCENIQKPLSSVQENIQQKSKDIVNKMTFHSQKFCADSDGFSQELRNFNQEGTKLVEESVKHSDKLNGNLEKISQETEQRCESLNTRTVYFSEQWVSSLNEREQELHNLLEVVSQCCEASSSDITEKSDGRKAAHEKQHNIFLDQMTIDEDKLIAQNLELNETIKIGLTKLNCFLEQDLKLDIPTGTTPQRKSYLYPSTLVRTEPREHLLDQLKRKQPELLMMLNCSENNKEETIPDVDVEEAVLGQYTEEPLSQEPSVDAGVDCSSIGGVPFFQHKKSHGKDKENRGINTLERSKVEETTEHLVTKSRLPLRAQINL

| Compound | pIC50 |
| --- | --- |
| Cc1ccc2c(c1C)CNCC2c1ccccc1 (centres undefined) | 5.08 |
| CC(=O)N1N=C(c2cc(F)ccc2F)C[C@H]1c1ccccc1 | 7.59 |
| Oc1cccc2ccc(SSc3ccc4cccc(O)c4n3)nc12 | 3.84 |
| OC1CC2CCC(C1)N2CCCN1c2ccccc2Sc2ccc(Cl)cc21 (centres undefined) | 5.25 |
| CN1Cc2c(ccc3c2CCO3)[C@@H](c2ccccc2)C1 | 5.01 |
| CCCCN1C(=O)[C@@H]2Cc3c([nH]c4ccccc34)[C@@H](c3cccc(O)c3)N2C1=O | 6.10 |
| CC[C@H](c1nc2cc(Cl)ccc2c(=O)n1Cc1ccccc1)N(CCCN(C)C)C(=O)c1ccc(Br)cc1 | 7.92 |
| Cc1ccc(C(=O)N(CCCN)Cc2nc3cc(Cl)ccc3c(=O)n2Cc2ccccc2)cc1 | 6.55 |
| CC(C)(O)C1C[C@@H](O)[C@]2(C)[C@H](CC[C@@]3(C)[C@H]2CC[C@H]2Cc4c([nH]c5ccccc45)[C@@]23C)O1 (some centres undefined) | 4.82 |
| Oc1cccc(C(c2cc(Cl)c(O)c(Cl)c2)C(c2cc(Cl)c(O)c(Cl)c2)c2cc(Cl)c(O)c(Cl)c2)c1Cl (centres undefined) | 4.57 |
| NCCCCCN1C(=O)[C@@H]2Cc3c([nH]c4ccccc34)[C@@H](c3cccc(O)c3)N2C1=O | 7.05 |
| O=C(O)c1cc2c(cc1S(=O)(=O)O)C1C(C3C2C2(Cl)C(Cl)=C(Cl)C3(Cl)C2(Cl)Cl)C2(Cl)C(Cl)=C(Cl)C1(Cl)C2(Cl)Cl (centres undefined) | 4.66 |
| CCNCCN1CCN(CCCN2c3ccccc3Sc3ccc(C(F)(F)F)cc32)CC1 | 5.18 |
| Cc1cc2c(C(C)C)c(O)c(O)c(C=O)c2c(O)c1-c1c(C)cc2c(C(C)C)c(O)c(O)c(C=O)c2c1O [GOSSYPOL] | 4.60 |
